Experimental data as given in US8846909B2, “Bicyclic heteroaryl kinase inhibitors and methods of use” (University of Rochester, priority 2010, dated 2014).
Counter-ions that a name gives are not always drawn.

Target: T1, MLK3 (Homo sapiens, UniProt Q16584)
T1 construct: purchased Dundee DU8313
Assay: Radiometric filter plate MLK3 assay; on MK3 IC50: 2 µM cold ATP (Km)
Format: biochemical
Settings: not given
Procedure: After a twenty minute incubation, the reactions were washed through filter plates and read on a scintillation counter. Results are shown in Table 10 below, in which +++ indicates ≦0.1 μM, ++ indicates >0.1 μM and ≦1 μM, and + indicates >1 μM.

T1 sequence (Q16584 whole entry): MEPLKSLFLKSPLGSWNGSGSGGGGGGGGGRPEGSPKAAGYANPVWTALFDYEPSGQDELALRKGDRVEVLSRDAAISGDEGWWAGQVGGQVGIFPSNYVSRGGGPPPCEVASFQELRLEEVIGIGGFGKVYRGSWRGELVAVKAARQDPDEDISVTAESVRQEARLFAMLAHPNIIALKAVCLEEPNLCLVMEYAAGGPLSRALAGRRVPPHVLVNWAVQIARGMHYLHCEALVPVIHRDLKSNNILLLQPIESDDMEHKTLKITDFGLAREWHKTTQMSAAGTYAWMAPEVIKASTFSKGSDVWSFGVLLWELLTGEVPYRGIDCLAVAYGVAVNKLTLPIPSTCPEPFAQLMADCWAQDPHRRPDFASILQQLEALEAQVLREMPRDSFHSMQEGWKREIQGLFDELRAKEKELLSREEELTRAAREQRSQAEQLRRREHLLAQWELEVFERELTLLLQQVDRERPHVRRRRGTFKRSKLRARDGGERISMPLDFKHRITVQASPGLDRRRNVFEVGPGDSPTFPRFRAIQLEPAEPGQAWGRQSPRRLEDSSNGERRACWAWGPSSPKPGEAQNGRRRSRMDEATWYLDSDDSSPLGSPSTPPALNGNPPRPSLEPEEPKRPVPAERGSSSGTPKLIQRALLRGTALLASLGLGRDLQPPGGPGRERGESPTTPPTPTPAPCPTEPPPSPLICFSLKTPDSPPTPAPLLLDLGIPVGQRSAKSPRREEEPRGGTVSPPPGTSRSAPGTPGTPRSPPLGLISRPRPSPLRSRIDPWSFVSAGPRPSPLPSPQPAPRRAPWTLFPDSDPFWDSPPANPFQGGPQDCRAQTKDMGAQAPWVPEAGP

Row | Structure (SMILES) | IC50
1 | CC(C)OC(=O)N1CCN(Cc2ccc(-c3cnc4[nH]cc(-c5ccc6[nH]ccc6c5)c4c3)cc2)CC1 [Example 185] | 100 to 1000 nM

Same assay, conditions: read-out: MK3 IC50

Row | IC50 | Structure (SMILES)
2 | > 1000 nM | COc1cc(-c2cnc3c(c2)C(Cc2ccc(C(N)=O)cc2)C(=O)N3)cc(OC)c1OC (centres unmarked) [Example 138, 4-[2-oxo-5-(3,4,5-trimethoxy-phenyl)-2,3-dihydro-1H-pyrrolo[2,3-b]pyridin-3-ylmethyl]-benzamide]
3 | < 100 nM | CN1CCN(Cc2ccc(-c3cnc4[nH]cc(-c5ccc6[nH]ccc6c5)c4c3)cc2)CC1=O [Example 141, 4-{4-[3-(1H-indol-5-yl)-1H-pyrrolo[2,3-b]pyridin-5-yl]-benzyl}-1-methyl-piperazin-2-one]
4 | < 100 nM | O=C1CN(Cc2ccc(-c3cnc4[nH]cc(-c5ccc6[nH]ccc6c5)c4c3)cc2)CCN1 [Example 142, 4-{4-[3-(1H-indol-5-yl)-1H-pyrrolo[2,3-b]pyridin-5-yl]-benzyl}-piperazin-2-one]
5 | < 100 nM | CN1CCN(Cc2cccc(-c3cnc4[nH]cc(-c5ccc6[nH]ccc6c5)c4c3)c2)CC1=O [Example 143, 4-{3-[3-(1H-indol-5-yl)-1H-pyrrolo[2,3-b]pyridin-5-yl]-benzyl}-1-methyl-piperazin-2-one]
6 | < 100 nM | CC(C)(C)OC(=O)N1CCN(Cc2ccc(-c3cnc4[nH]cc(-c5ccc6[nH]ccc6c5)c4c3)cc2)CC1 [Example 144, 4-{4-[3-(1H-indol-5-yl)-1H-pyrrolo[2,3-b]pyridin-5-yl]-benzyl}-piperazine-1-carboxylic acid tert-butyl ester]
7 | 100 to 1000 nM | CN1CCN(C(=O)c2ccc(-c3cnc4[nH]cc(-c5ccc6[nH]ccc6c5)c4c3)cc2)CC1 [Example 145, {4-[3-(1H-indol-5-yl)-1H-pyrrolo[2,3-b]pyridin-5-yl]-phenyl}-(4-methyl-piperazin-1-yl)-methanone]
8 | < 100 nM | CC(=O)N1CCN(C(=O)c2ccc(-c3cnc4[nH]cc(-c5ccc6[nH]ccc6c5)c4c3)cc2)CC1 [Example 146, 1-(4-{4-[3-(1H-indol-5-yl)-1H-pyrrolo[2,3-b]pyridin-5-yl]-benzoyl}piperazin-1-yl)-ethanone]
9 | < 100 nM | CC(C)(C)OC(=O)N1CCN(C(=O)c2ccc(-c3cnc4[nH]cc(-c5ccc(C(N)=O)cc5)c4c3)cc2)CC1 [Example 148, 4-{4-[3-(4-carbamoyl-phenyl)-1H-pyrrolo[2,3-b]pyridin-5-yl]-benzoyl}-piperazine-1-carboxylic acid tert-butyl ester]
10 | < 100 nM | NC(=O)c1ccc(-c2c[nH]c3ncc(-c4ccc(C(=O)N5CCNCC5)cc4)cc23)cc1 [Example 149, 4-{5-[4-(piperazine-1-carbonyl)-phenyl]-1H-pyrrolo[2,3-b]pyridin-3-yl}-benzamide, hydrochloride salt]
11 | < 100 nM | CC(C)(C)OC(=O)N1CCN(C(=O)c2cccc(-c3cnc4[nH]cc(-c5ccc(C(N)=O)cc5)c4c3)c2)CC1 [Example 151, 4-{3-[3-(4-carbamoyl-phenyl)-1H-pyrrolo[2,3-b]pyridin-5-yl]-benzoyl}-piperazine-1-carboxylic acid tert-butyl ester]
12 | 100 to 1000 nM | COc1cc(-c2cc3c(-c4ccc(C(N)=O)cc4)c[nH]c3[n+]([O-])c2)cc(OC)c1OC [Example 154, 4-[7-oxy-5-(3,4,5-trimethoxy-phenyl)-1H-pyrrolo[2,3-b]pyridin-3-yl]benzamide]
13 | < 100 nM | CN1CCN(Cc2cccc(-c3cnc4[nH]cc(-c5ccc(C(N)=O)cc5)c4c3)c2)CC1 [Example 156, 4-{5-[3-(4-methyl-piperazin-1-ylmethyl)-phenyl]-1H-pyrrolo[2,3-b]pyridin-3-yl}-benzamide]
14 | < 100 nM | CC(=O)N1CCN(Cc2ccc(-c3cnc4[nH]cc(-c5ccc(C(N)=O)cc5)c4c3)cc2)CC1 [Example 157, 4-{5-[4-(4-acetyl-piperazin-1-ylmethyl)-phenyl]-1H-pyrrolo[2,3-b]pyridin-3-yl}-benzamide]
15 | < 100 nM | CN1CCN(Cc2ccc(-c3cnc4[nH]cc(-c5ccc(C(N)=O)cc5)c4c3)cc2)CC1=O [Example 158, 4-{5-[4-(4-methyl-3-oxo-piperazin-1-ylmethyl)-phenyl]-1H-pyrrolo[2,3-b]pyridin-3-yl}-benzamide]
16 | < 100 nM | CN1CCN(Cc2ccc(-c3c[nH]c4ncc(-c5ccc(C(N)=O)cc5)cc34)cc2)CC1 [Example 162, 4-{3-[4-(4-methyl-piperazin-1-ylmethyl)-phenyl]-1H-pyrrolo[2,3-b]pyridin-5-yl}-benzamide]
17 | > 1000 nM | CN1CCN(Cc2ccc(-c3c[nH]c4ncc(-c5ccc6[nH]ccc6c5)cc34)cc2)CC1 [Example 163, 5-(1H-indol-5-yl)-3-[4-(4-methyl-piperazin-1-ylmethyl)-phenyl]-1H-pyrrolo[2,3-b]pyridine]
18 | < 100 nM | CNC(=O)c1ccc(-c2c[nH]c3ncc(-c4ccc(CN5CCN(C)CC5)cc4)cc23)cc1 [Example 165, N-methyl-4-{5-[4-(4-methyl-piperazin-1-ylmethyl)-phenyl]-1H-pyrrolo[2,3-b]pyridin-3-yl}-benzamide]
19 | < 100 nM | c1cc2cc(-c3c[nH]c4ncc(-c5ccc(CN6CCOCC6)cc5)cc34)ccc2[nH]1 [Example 169, 4-(4-(3-(1H-indol-5-yl)-1H-pyrrolo[2,3-b]pyridin-5-yl)benzyl)morpholine]
20 | > 1000 nM | CN1CCN(Cc2ccc(-c3cnc4[nH]cc(-c5ccc(F)cc5)c4c3)cc2)CC1 [Example 170]
21 | > 1000 nM | CN1CCN(Cc2ccc(-c3cnc4[nH]cc(-c5ccc(C(F)(F)F)cc5)c4c3)cc2)CC1 [Example 171]
22 | 100 to 1000 nM | c1ccc(CN2CCN(Cc3ccc(-c4cnc5[nH]cc(-c6ccc7[nH]ccc7c6)c5c4)cc3)CC2)cc1 [Example 178]

Row | IC50 | Structure (SMILES)
23 | < 100 nM | CC(C)(C)CC(=O)N1CCN(Cc2ccc(-c3cnc4[nH]cc(-c5ccc6[nH]ccc6c5)c4c3)cc2)CC1 [Example 182]
24 | < 100 nM | CCOC(=O)N1CCN(Cc2ccc(-c3cnc4[nH]cc(-c5ccc6[nH]ccc6c5)c4c3)cc2)CC1 [Example 183]
25 | < 100 nM | COC(=O)N1CCN(Cc2ccc(-c3cnc4[nH]cc(-c5ccc6[nH]ccc6c5)c4c3)cc2)CC1 [Example 184]
26 | < 100 nM | CC(C)C(=O)N1CCN(Cc2ccc(-c3cnc4[nH]cc(-c5ccc6[nH]ccc6c5)c4c3)cc2)CC1 [Example 186]
27 | < 100 nM | CCC(=O)N1CCN(Cc2ccc(-c3cnc4[nH]cc(-c5ccc6[nH]ccc6c5)c4c3)cc2)CC1 [Example 187]
28 | < 100 nM | COCC(=O)N1CCN(Cc2ccc(-c3cnc4[nH]cc(-c5ccc6[nH]ccc6c5)c4c3)cc2)CC1 [Example 188]
29 | < 100 nM | CCS(=O)(=O)N1CCN(Cc2ccc(-c3cnc4[nH]cc(-c5ccc6[nH]ccc6c5)c4c3)cc2)CC1 [Example 189]
30 | < 100 nM | CS(=O)(=O)N1CCN(Cc2ccc(-c3cnc4[nH]cc(-c5ccc6[nH]ccc6c5)c4c3)cc2)CC1 [Example 190]
31 | < 100 nM | O=C(CCO)N1CCN(Cc2ccc(-c3cnc4[nH]cc(-c5ccc6[nH]ccc6c5)c4c3)cc2)CC1 [Example 191]
32 | < 100 nM | COCCC(=O)N1CCN(Cc2ccc(-c3cnc4[nH]cc(-c5ccc6[nH]ccc6c5)c4c3)cc2)CC1 [Example 192]
33 | < 100 nM | O=C(CC1CC1)N1CCN(Cc2ccc(-c3cnc4[nH]cc(-c5ccc6[nH]ccc6c5)c4c3)cc2)CC1 [Example 193]
34 | < 100 nM | CC(C)CC(=O)N1CCN(Cc2ccc(-c3cnc4[nH]cc(-c5ccc6[nH]ccc6c5)c4c3)cc2)CC1 [Example 194]
35 | < 100 nM | O=C1CCC(C(=O)N2CCN(Cc3ccc(-c4cnc5[nH]cc(-c6ccc7[nH]ccc7c6)c5c4)cc3)CC2)N1 (centres unmarked) [Example 195]
36 | < 100 nM | CC(=O)N1CCN(Cc2ccc(-c3cnc4[nH]cc(-c5ccc6[nH]ccc6c5)c4c3)cc2)CC1C (centres unmarked) [Example 197, 1-(4-(4-(3-(1H-indol-5-yl)-1H-pyrrolo[2,3-b]pyridin-5-yl)benzyl)-2-methylpiperazin-1-yl)ethanone]
37 | < 100 nM | CC1CN(Cc2ccc(-c3cnc4[nH]cc(-c5ccc6[nH]ccc6c5)c4c3)cc2)CCN1C (centres unmarked) [Example 198, 5-(4-((3,4-dimethylpiperazin-1-yl)methyl)phenyl)-3-(1H-indol-5-yl)-1H-pyrrolo[2,3-b]pyridine]
38 | < 100 nM | c1cn(Cc2ccc(-c3cnc4[nH]cc(-c5ccc6[nH]ccc6c5)c4c3)cc2)cn1 [Example 199, 5-(4-((1H-imidazol-1-yl)methyl)phenyl)-3-(1H-indol-5-yl)-1H-pyrrolo[2,3-b]pyridine]
39 | < 100 nM | CN1CCN(Cc2ccc(-c3cnc4[nH]cc(-c5ccc6nccc(O)c6c5)c4c3)cc2)CC1 [Example 200]
40 | < 100 nM | CN1CCN(Cc2ccc(-c3cnc4[nH]cc(-c5cnc6[nH]ccc6c5)c4c3)cc2)CC1 [Example 202]
41 | < 100 nM | CN1CCN(Cc2ccc(-c3cnc4[nH]cc(-c5ccc6ncccc6c5)c4c3)cc2)CC1 [Example 203]
42 | < 100 nM | [2H]c1cc2cc(-c3c[nH]c4ncc(-c5ccc(CN6CCN(C)CC6)cc5)cc34)ccc2[nH]1 [Example 206]

Test system: not listed separately
Assay: Pharmacokinetic evaluation in mice (plasma and brain AUC)
Format: in vivo
Design: unit not given here
Settings: CL57 BL/6 mice, single IV injection 10 mg/kg, brain homogenate
Procedure: Several compounds disclosed herein were evaluated in a standard murine pharmacokinetic model. […] Three mice in each group were used for blood and brain collection at each time point. […] The brain of each animal was collected after the final blood collection. The whole tissue was harvested, excised and rinsed by saline, dried by filter paper, and then placed into one tube per tissue per animal. All samples were stored at −20° C. until bioanalysis. Compound concentrations in plasma and brain homogenate were determined using a high performance liquid chromatography/mass spectrometry (HPLC/MS/MS) method (Agilent 1100 series HPLC, AB Inc. API4000 triple-quadrupole with an ESI interface and Analyst 1.4 software). Results in the form of area under the time-versus-concentration curve (AUC) are given below in Table 11.

Row | AUC Brain | Structure (SMILES)
43 | + (+ indicates ≧500) | COc1cc(-c2cnc3[nH]cc(-c4ccc5[nH]ccc5c4)c3c2)cc(OC)c1OC [Example 1, 3-(1H-indol-5-yl)-5-(3,4,5-trimethoxyphenyl)-1H-pyrrolo[2,3-b]pyridine]
44 | + (+ indicates ≧500) | CN1CCN(Cc2ccc(-c3cnc4[nH]cc(-c5ccc6[nH]ccc6c5)c4c3)cc2)CC1 [Example 32, 3-(1H-indol-5-yl)-5-(4-((4-methylpiperazin-1-yl)methyl)phenyl)-1H-pyrrolo[2,3-b]pyridine]
